Counter-ions that a name gives are not always drawn.
Experiments:
[1] = molecular target: T1, proMMP9(20-445;ΔFnII) (SEQ ID NO:6) (Homo sapiens, UniProt P14780, DEL216-390); experiment: ThermoFluor binding assay with proMMP9(20-445;ΔFnII); settings: pH 7.0
T1 construct: start methionine (N); made in house; host or cells: E. coli BL21(DE3) RIL
T1 sequence (P14780 with tags, fused parts or gaps DEL216-390): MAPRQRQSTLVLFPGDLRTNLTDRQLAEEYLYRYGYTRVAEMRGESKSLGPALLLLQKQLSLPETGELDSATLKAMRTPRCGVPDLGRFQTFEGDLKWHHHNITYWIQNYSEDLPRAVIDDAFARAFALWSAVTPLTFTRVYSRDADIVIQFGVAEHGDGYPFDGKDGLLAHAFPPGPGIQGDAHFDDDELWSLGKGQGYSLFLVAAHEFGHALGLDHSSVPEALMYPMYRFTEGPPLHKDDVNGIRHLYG
Experimental: (§1) The ThermoFluor® (TF) assay is a 384-well plate-based binding assay that measures thermal stability of proteins (Biomol Screen 2001, 6, 429-40; Biochemistry 2005, 44, 5258-66). The experiments were carried out using instruments available from Johnson & Johnson Pharmaceutical Research & Development, LLC. TF dye used in all experiments was […] (1,8-ANS) (Invitrogen: A-47).
(§2) Compounds were arranged in a pre-dispensed plate (Greiner Bio-one: 781280), wherein compounds were serially diluted in 100% DMSO across 11 columns within a series. Columns 12 and 24 were used as DMSO reference and contained no compound. For multiple compound concentration-response experiments, the compound aliquots ([…]) were robotically predispensed directly into black 384-well polypropylene PCR microplates (Abgene: TF-0384/k) using a Cartesian Hummingbird liquid handler (DigiLab, Holliston, Mass.). Following compound dispense, protein and dye solutions were added to achieve the final assay volume of 3 μL. The assay solutions were overlayed with 1 μL of silicone oil (Fluka, type DC 200: 85411) to prevent evaporation.
(§3) Assay plates were robotically loaded onto a thermostatically controlled PCR-type thermal block and then heated from 40 to 90° C. at a ramp-rate of 1° C./min for all experiments. Fluorescence was measured by continuous illumination with UV light (Hamamatsu LC6) supplied via fiber optics and filtered through a band-pass filter (380-400 nm; >6 OD cutoff). Fluorescence emission of the entire 384-well plate was detected by measuring light intensity using a CCD camera (Sensys, Roper Scientific) filtered to detect 500±25 nm, resulting in simultaneous and independent readings of all 384 wells. A single image with 20-sec exposure time was collected at each temperature, and the sum of the pixel intensity in a given area of the assay plate was recorded vs temperature and fit to standard equations to yield the Tm (J Biomol Screen 2001, 6, 429-40).
(§4) Thermodynamic parameters necessary for fitting compound binding for each proMMP were estimated by differential scanning calorimetry (DSC) and from ThermoFluor® data. The heat capacity of unfolding for each protein was estimated from the molecular weight and from ThermoFluor® dosing data.
The protein sample preparations included a desalting buffer exchange step via a PD-10 gravity column (GE Healthcare). The desalting buffer exchange was performed prior to diluting the protein to the final assay concentration of 2.8 μM proMMP9(20-445;ΔFnII) (SEQ ID NO:6). The concentration of proMMP9(20-445;ΔFnII) (SEQ ID NO:6) was determined spectrophotometrically based on a calculated extinction coefficient of ε280=39880 M^−cm^−1, a calculated molecular weight of 28.2 kDa, and calculated pI of 5.5. ThermoFluor® reference conditions were define as follows: 80 μg/mL (2.8 μM) proMMP9(20-445;ΔFnII) (SEQ ID NO:6), 50 μM 1,8-ANS, pH 7.0 Buffer (50 mM HEPES pH 7.0, 100 mM NaCl, 0.001% Tween-20, 2.5 mM MgCl2, 300 μM CaCl2). The thermodynamic parameters for proMMP9(20-445;ΔFnII) (SEQ ID NO:6) are as follows: Tm (° C.)=72 (+/−0.1), ΔUH(Tm) (cal mol^−1)=160000(+/−5000), ΔUS(Tm) (cal mol^−1 K^−1)=434, ΔUCp (cal mol^−1 K^−)=2400.

[2] = molecular target: T2, proMMP9(67-444;ΔFnII) (SEQ ID NO:5) (Homo sapiens, UniProt P14780, DEL216-390); experiment: ThermoFluor binding assay with proMMP9(67-444;ΔFnII); settings: pH 7.0
T2 construct: start methionine (N); made in house; host or cells: E. coli BL21(DE3) RIL
T2 sequence (P14780 with tags, fused parts or gaps DEL216-390): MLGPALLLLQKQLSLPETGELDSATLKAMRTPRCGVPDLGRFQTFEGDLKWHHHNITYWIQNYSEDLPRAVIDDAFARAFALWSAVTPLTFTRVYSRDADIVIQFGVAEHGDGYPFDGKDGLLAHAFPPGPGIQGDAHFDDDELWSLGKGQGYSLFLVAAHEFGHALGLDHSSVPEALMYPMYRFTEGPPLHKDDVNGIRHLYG
Experimental: as §1, §2, §3, §4
The protein sample preparations had to include a desalting buffer exchange step via a PD-10 gravity column (GE Healthcare). The desalting buffer exchange was performed prior to diluting the protein to the final assay concentration of 3.5 μM proMMP9(67-444;ΔFnII) (SEQ ID NO:5). The concentration of proMMP9(67-444;ΔFnII) (SEQ ID NO:5) was determined spectrophotometrically based on a calculated extinction coefficient of ε280=33900 M^−1cm^−1, a calculated molecular weight of 22.6 kDa, and calculated pI of 5.20. ThermoFluor® reference conditions were defined as follows: 80 μg/mL (3.5 μM) proMMP9(67-444;ΔFnII) (SEQ ID NO:5), 50 μM 1,8-ANS, pH 7.0 Buffer (50 mM HEPES pH 7.0, 100 mM NaCl, 0.001% Tween-20, 2.5 mM MgCl2, 300 μM CaCl2). The thermodynamic parameters for proMMP9(67-444;ΔFnII) (SEQ ID NO:5) are as follows: Tm (° C.)=63 (+/−0.1), ΔUH(Tm) (cal mol^−1)=105000(+/−5000), ΔUS(Tm) (cal mol^−1 K^−1)=[…], ΔUCp (cal mol^−1 K^−1)=2000.

[3] = molecular target: T3, full-length proMMP9(1-707) (SEQ ID NO:1) (Homo sapiens, UniProt P14780, R574P); experiment: proMMP9/MMP3 P126 Activation Assay; format: biochemical; settings: 20 nM proMMP9, 20 nM MMP3, 80 min 37° C.
T3 construct: made in house; host or cells: HEK293 (proMMP9, secreted); E. coli (MMP3)
Experimental: The reaction volume was 50 μL. […] Reactivity of residual MMP3 towards P-126 substrate was minimal under these conditions.

[4] = molecular target: proMMP13(1-268) (SEQ ID NO:7) (Homo sapiens, UniProt P45452); experiment: ThermoFluor binding assay with proMMP13(1-268); set-up: 6xHis (C); made in house; settings: pH 7.0
Experimental: as §1, §2, §3, §4
The proMMP13(1-268) (SEQ ID NO:7) protein sample preparations included a desalting buffer exchange step via a PD-10 gravity column (GE Healthcare). The desalting buffer exchange was performed prior to diluting the protein to the final assay concentration of 3.5 μM. The concentration of proMMP13(1-268) (SEQ ID NO:7) was estimated spectrophotometrically based on a calculated extinction coefficient of ε280=37000 M^−1cm^−1, a calculated molecular weight of 30.8 kDa, and calculated pI of 5.33. ThermoFluor® reference conditions were defined as follows: 100 μg/mL proMMP13(1-268) (SEQ ID NO:7), 25 μM 1,8-ANS, pH 7.0 Buffer (50 mM HEPES pH 7.0, 100 mM NaCl, 0.001% Tween-20, 2.5 mM MgCl2, 300 μM CaCl2). The thermodynamic parameters for proMMP13(1-268) (SEQ ID NO:7) are as follows: Tm (° C.)=67 (+/−0.1), ΔUH(Tm) (cal mol^−1)=107000(+/−5000), ΔUS(Tm) (cal mol^−1 K^−1)=318, ΔUCp (cal mol^−1 K^−1)=2600.

T3 sequence (P14780 20-707 R574P): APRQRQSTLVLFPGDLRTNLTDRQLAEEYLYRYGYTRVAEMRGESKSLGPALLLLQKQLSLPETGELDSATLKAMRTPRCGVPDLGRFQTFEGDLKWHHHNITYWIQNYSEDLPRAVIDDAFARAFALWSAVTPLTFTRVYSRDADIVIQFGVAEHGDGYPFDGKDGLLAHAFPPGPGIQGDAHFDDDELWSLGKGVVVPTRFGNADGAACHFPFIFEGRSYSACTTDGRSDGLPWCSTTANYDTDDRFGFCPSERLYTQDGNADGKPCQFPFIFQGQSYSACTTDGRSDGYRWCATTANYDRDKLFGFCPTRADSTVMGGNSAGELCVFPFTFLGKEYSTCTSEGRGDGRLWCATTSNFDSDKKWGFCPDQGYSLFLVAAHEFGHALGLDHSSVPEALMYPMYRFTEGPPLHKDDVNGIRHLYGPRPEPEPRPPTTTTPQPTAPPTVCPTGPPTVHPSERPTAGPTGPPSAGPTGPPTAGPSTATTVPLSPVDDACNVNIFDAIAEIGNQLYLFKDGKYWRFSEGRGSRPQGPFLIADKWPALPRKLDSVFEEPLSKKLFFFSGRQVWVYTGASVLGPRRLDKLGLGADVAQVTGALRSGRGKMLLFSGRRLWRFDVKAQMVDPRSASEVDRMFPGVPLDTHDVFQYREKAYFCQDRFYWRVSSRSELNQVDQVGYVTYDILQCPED

Compound `Cc1nc(N)sc1-c1csc(Nc2cc(S(C)(=O)=O)ccc2OC(C)C)n1` [Example 44, N^2-(2-Isopropoxy-5-methanesulfonyl-phenyl)-4′-methyl-[4,5′]bithiazolyl-2,2′-diamine.TFA] has a Kd [1] of 0.072 µM, a Kd [2] of 0.24 µM and an IC50 [3] of 0.41 µM. For the same compound, the Kd [4] was 0.07 µM.

Work on `CCOC(=O)c1ccc(OCC)c(Nc2nc(-c3sc(N)nc3C)cs2)c1` [Example 81, 3-(2′-Amino-4′-methyl-[4,5′]bithiazolyl-2-ylamino)-4-ethoxy-benzoic acid ethyl ester.TFA] yielded a Kd [1] of 0.52 µM, a Kd [2] of 0.62 µM and an IC50 [3] of 0.64 µM. For the same compound, the Kd [4] was 0.37 µM.

For `CCOc1ccc(-c2ncco2)cc1Nc1nc(-c2sc(N)nc2C)cs1` [Example 79, N^2-(2-Ethoxy-5-oxazol-2-yl-phenyl)-4′-methyl-[4,5′]bithiazolyl-2,2′diamine.HBr], the Kd [1] was 1.2 µM, the Kd [2] was 0.052 µM and the IC50 [3] was 0.55 µM. For the same compound, the Kd [4] was 0.24 µM.

With `Cc1nc(C(=O)N2CCC(N(C)C)CC2)sc1-c1csc(Nc2cc(C(N)=O)ccc2OC(C)C)n1` [Example 110, 3-[2′-(4-Dimethylamino-piperidine-1-carbonyl)-4′-methyl-[4,5]bithiazolyl-2-ylamino]-4-isopropoxy-benzamide.TFA] the Kd [1] was 0.13 µM, the Kd [2] was 0.48 µM and the IC50 [3] was 0.2 µM. The Kd [4] was 0.69 µM.

In the case of `Cc1ccc(C(N)=O)cc1Nc1nc(-c2sc(N)nc2C)cs1` [Example 25, 3-(2′-Amino-4′-methyl-[4,5′]bithiazolyl-2-ylamino)-4-methyl-benzamide.HBr], the Kd [1] is reported as 2.7 µM, the Kd [2] is reported as 6.8 µM and the IC50 [3] is reported as 4.6 µM. The Kd [4] was 31 µM.

Compound `Cc1nc(C)c(-c2csc(Nc3cc(S(N)(=O)=O)ccc3OC(F)(F)F)n2)s1` [Example 144, 3-(2′,4′-Dimethyl-[4,5′]bithiazolyl-2-ylamino)-4-trifluoromethoxy-benzenesulfonamide.HCl] has a Kd [1] of 1 µM, a Kd [2] of 2 µM and an IC50 [3] of 1.6 µM. It also gave a Kd [4] of 3.6 µM.

For `CCN(CC)S(=O)(=O)c1ccc(OC)c(Nc2nc(-c3sc(N)nc3C)cs2)c1` [Example 21, 3-(2′-Amino-4′-methyl-[4,5′]bithiazolyl-2-ylamino)-N,N-diethyl-4-methoxy-benzenesulfonamide.HBr], the Kd [1] was 9.6 µM, the Kd [2] was 2.9 µM and the Kd [4] was 1.7 µM.

Work on `COc1ccc(C(N)=O)cc1Nc1nc(-c2sc(N3CCN(C)CC3)nc2C)cs1` [Example 93, 4-Methoxy-3-[4′-methyl-2′-(4-methyl-piperazin-1-yl)-[4,5′]bithiazolyl-2-ylamino]-benzamide.TFA] yielded a Kd [1] of 0.74 µM, a Kd [2] of 2.5 µM and a Kd [4] of 16 µM.

For `Cc1nc(C(=O)N2CCC(O)CC2)sc1-c1csc(Nc2cc(C(N)=O)ccc2OC(C)C)n1` [Example 105, 3-[2′-(4-Hydroxy-piperidine-1-carbonyl)-4′-methyl-[4,5′]bithiazolyl-2-ylamino]-4-isopropoxy-benzamide.TFA], the Kd [1] was 0.24 µM, the Kd [2] was 2.9 µM and the Kd [4] was 1.3 µM.

With `CCOc1ccc(-c2ncco2)cc1Nc1nc(-c2sc(NC(C)=O)nc2C)cs1` [Example 78, N-[2-(2-Ethoxy-5-oxazol-2-yl-phenylamino)-4′-methyl-[4,5′]bithiazolyl-2′-yl]-acetamide.TFA] the Kd [1] was 15 µM, the Kd [2] was 0.48 µM and the Kd [4] was 2.9 µM.

`CC(=O)Nc1nc(C)c(-c2csc(Nc3cccc4c3OCCO4)n2)s1` [Example 19, N-[2-(2,3-Dihydro-benzo[1,4]dioxin-5-ylamino)-4′-methyl-[4,5′]bithiazolyl-2′-yl]-acetamide] showed a Kd [1] of 17 µM, a Kd [2] of 11 µM and a Kd [4] of 62 µM.

`COc1ccc(C)cc1Nc1nc(-c2sc(N)nc2C)cs1` [Example 24, N^2-(2-Methoxy-5-methyl-phenyl)-4′-methyl-[4,5′]bithiazolyl-2,2′-diamine.HBr] was tested, and the Kd [1] was 8.6 µM, the Kd [2] was 2.3 µM and the Kd [4] was 25 µM.

`COc1ccc(-c2ccccc2)cc1Nc1nc(-c2sc(N)nc2C)cs1` [Example 23, N^2-(4-Methoxy-biphenyl-3-yl)-4′-methyl-[4,5′]bithiazolyl-2,2′-diamine.HBr] was tested, and the Kd [1] was 12 µM, the Kd [2] was 15 µM and the Kd [4] was 0.98 µM.

For `COc1ccc(C(=O)NCCN2CCCCC2)cc1Nc1nc(-c2sc(NC(C)=O)nc2C)cs1` [Example 58, 3-(2′-Acetylamino-4′-methyl-[4,5′]bithiazolyl-2-ylamino)-4-methoxy-N-(2-piperidin-1-yl-ethyl)-benzamide.TFA], the Kd [1] was 19 µM, the Kd [2] was 6.5 µM and the Kd [4] was greater than 95 µM.

In the case of `CNC(=O)c1ccc(OC)c(Nc2nc(-c3sc(NC(C)=O)nc3C)cs2)c1` [Example 65, 3-(2′-Acetylamino-4′-methyl-[4,5′]bithiazolyl-2-ylamino)-4-methoxy-N-methyl-benzamide.TFA], the Kd [1] is reported as 3 µM, the Kd [2] is reported as 2.8 µM and the Kd [4] is reported as 7.8 µM.

From patent US20120129842A1, “BISTHIAZOLE INHIBITORS OF PRO-MATRIX METALLOPROTEINASE ACTIVATION” (priority 2010, published 2012)
